Square brackets hold non-standard residues; d marks the D form. Peptide text beside a SMILES is read from it. Nle = CCCC[C@H](N)C(=O)O
Columns and labels:
[1] = system: small intestine; assay: Intestine weight model in rats; format: in vivo, SD rats; conditions: modified peptides; two injections on days 1 & 3 at 1 mg/kg; intestine weight on day 6
Method: In the pharmacology study, the conjugates were injected subcutaneously twice, on days 1 and 3 at 1 mg/kg (peptide dose) and intestine weight was performed on day 6. In addition to the PEGylated conjugates, GLP-2-Gly2 was injected at the same dose and regimen for comparison. The average of the intestine weight of each group was compared to that of the vehicle group.
In a different study, several of the PEGylated teduglutide were injected as a single dose at 1 mg/kg and the intestine weight performed on day 6.
Pharmacology and pharmacokinetic studies were performed with the most promising GLP-2 variants to evaluate their efficacy and longevity, respectively. The intestine weight model in rats was conducted to evaluate efficacy, by measuring percent increase of the intestine weight of treated animals over the vehicle group. In this study, the peptides were injected twice, on days 1 and 3 at 1 mg/kg and the intestine weight was conducted on day 6.
PEG20-FMS-V6, PEG20-Fmoc-V6 and PEG40-FMS-V6 were injected once at 1 mg/kg dose on day 1, while group D was also injected twice on days 1 & 3 at 1 mg/kg. The intestine weight was performed on day 6.
Three different reversible PEGylated GLP-2 variants using mutated peptide #4 were injected at 2 mg/kg (peptide dose), once every 6 days for 12 days. On the 12th day the intestine was weighted and compared to the control group. PEG30-FMS-V4 was injected at 0.5 mg/kg as well to evaluate the efficacy dose range.
In addition to PEG30-FMS-V4 and PEG30-Fmoc-V4 that have been pharmacology evaluated by small intestinal weight evaluation (As shown in Example 5), four other reversible PEGylated variant 4 (“V4”) conjugates and two reversible linker-V4 conjugates were synthesized. All the above were injected to 6 normal SD rats/group once at 2 mg/kg (peptide dose), while on the 6th day, animals were scarified, and the small intestine was weighted followed by histopathology evaluation. […] Therefore, slices from three areas of the intestine (duodenum, jejunum and ilium) were stained with hematoxylin and eosin and at least 7 Crypts+Villi length/slice were measured. The averaged Villi+Crypt length of each treatment group (n=6) was compared to the vehicle group (negative control) and calculated as percentage increase over vehicle.
Additional studies were conducted to evaluate the efficacy of the V4 peptide and the reversible MAL-FMS-V4. The long acting effect of V4 and the conjugates were evaluated at Day 6 and Day 10 following treatment (Study reference 15203). All test groups (n=9) were injected SC with 2 mg/kg peptide content at Day 1. At Days 6 and 10, animals were sacrificed and the small intestine underwent histopathology evaluation (6 animals for Day 6, 3 animals for Day 10). FIGS. 12 and 13 show the pharmacology effect of different V4 conjugates and Apraglutide and Glepaglutide as measured by the percent increase of small intestine weight and crypts plus villi length over vehicle, respectively.
To further evaluate the pharmacology efficacy of V4 and Cys-FMS-V4, an experiment was performed to test their acute and prolonged effect on the small intestine (Study reference 15205). In addition, V4 and Cys-FMS-V4 were administrated as a single SC injection on Day 1 at 3 different doses (0.5, 2.0 or 8.0 mg/kg peptide content, 6 rats per group) to assess the dose dependence effect. The pharmacological effect on small intestine weight and villi plus crypts length was measured at Days 3, 7 and 14, and the results are presented in FIGS. 15 and 16. […] It should be noted that this acute response was higher for V4 compared to Cys-FMS-V4 at all 3 dose levels.

[2] = Pharmacokinetics of modified GLP-2 variants in rats; format: in vivo; conditions: rat, serum, peptide dose 15 mg/kg
[3] = Stability of GLP-2 analogues on incubation at 37° C. (appearance, O.D. reading, RP-HPLC); format: physicochemical; conditions: following 48 h incubation at 37° C.; for Stability via RP-HPLC main peak: change of main peak
Method: The GLP-2 analogues were tested for stability via appearance, O.D. reading (A.280, and A.325) and RP-HPLC (purity, and peak area) following t=0, 1 day, and 48 h incubation at 37° C.

[4] = biological target: T1, GLP-2 receptor (Homo sapiens, UniProt O95838); assay: GLP-2 receptor Cell Based Assay (CBA); conditions: Table 7
T1 sequence (O95838 1-553): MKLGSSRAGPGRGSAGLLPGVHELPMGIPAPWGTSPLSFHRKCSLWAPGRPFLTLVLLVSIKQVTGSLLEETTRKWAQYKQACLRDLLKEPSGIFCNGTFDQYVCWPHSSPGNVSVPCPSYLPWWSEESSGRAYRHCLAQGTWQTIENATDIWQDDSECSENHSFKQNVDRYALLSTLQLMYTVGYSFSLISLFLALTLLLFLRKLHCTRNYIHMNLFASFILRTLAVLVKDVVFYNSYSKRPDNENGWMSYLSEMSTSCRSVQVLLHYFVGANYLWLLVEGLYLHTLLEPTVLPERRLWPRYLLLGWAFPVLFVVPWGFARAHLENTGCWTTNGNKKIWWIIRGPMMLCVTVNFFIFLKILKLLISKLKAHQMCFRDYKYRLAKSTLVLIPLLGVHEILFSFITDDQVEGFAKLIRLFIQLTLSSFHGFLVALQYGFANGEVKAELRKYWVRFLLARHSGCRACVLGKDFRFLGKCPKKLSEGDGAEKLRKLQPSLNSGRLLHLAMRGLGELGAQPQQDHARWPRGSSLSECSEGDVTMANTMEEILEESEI
Method: Evaluation of in vitro binding affinity of the different peptides was assessed by using Cell Based Assay (CBA) in the presence of escalating doses of the different peptides.

[5] = Solubility and stability in different buffer systems, concentrations, incubation and freeze-thaw; format: physicochemical; conditions: Histidine and NaPi, pH 6.8 to 7.5; 1-10 mg/mL; up to 3 days at 37° C.; up to three freeze-thaw cycles

Row | half-life [2] [h] | Solubility via appearance [3] | Stability via RP-HPLC main peak [3] | EC50 Ratio to Teduglutide [4] | CMC perspective, combining purity and solubility [5] | SMILES | Increase of intestine weight over vehicle (%) [1] [%]
1 | 1.9 | V3: clear | V3: −4% | 2.5 |  | CCCC[C@H](NC(=O)[C@H](CCC(=O)O)NC(=O)[C@H](CC(=O)O)NC(=O)[C@H](CO)NC(=O)[C@H](Cc1ccccc1)NC(=O)[C@H](CO)NC(=O)CNC(=O)[C@H](CCC(=O)O)NC(=O)CNC(=O)[C@@H](N)Cc1c[nH]cn1)C(=O)N[C@H](Cc1c[nH]cn1)C(=O)N[C@H](C(=O)N[C@H](C(=O)N[C@@H](CC(C)C)C(=O)N[C@@H](CC(=O)O)C(=O)N[C@@H](CC(N)=O)C(=O)N[C@@H](CC(C)C)C(=O)N[C@@H](C)C(=O)N[C@@H](C)C(=O)N[C@@H](CCCNC(=N)N)C(=O)N[C@@H](CC(=O)O)C(=O)N[C@@H](Cc1ccccc1)C(=O)N[C@H](C(=O)N[C@@H](CC(N)=O)C(=O)N[C@@H](Cc1c[nH]c2ccccc12)C(=O)N[C@@H](CC(C)C)C(=O)N[C@H](C(=O)N[C@@H](CCC(N)=O)C(=O)N[C@H](C(=O)N[C@@H](CCCCN)C(=O)N[C@H](C(=O)N[C@H](C(=O)N[C@@H](CC(=O)O)C(N)=O)[C@@H](C)O)[C@@H](C)CC)[C@@H](C)O)[C@@H](C)CC)[C@@H](C)CC)[C@@H](C)CC)[C@@H](C)O [Variant 3] (H-HGEGSFSDE[Nle][dH]TILDNLAARDFINWLIQTKITD-NH2) | 4
2 | 6.5 | V5: clear |  | 2.4 |  | CCCC[C@H](NC(=O)[C@H](CCC(=O)O)NC(=O)[C@H](CC(=O)O)NC(=O)[C@H](CO)NC(=O)[C@H](Cc1ccccc1)NC(=O)[C@H](CO)NC(=O)CNC(=O)[C@H](CCC(=O)O)NC(=O)CNC(=O)[C@@H](N)Cc1c[nH]cn1)C(=O)N[C@@H](CC(N)=O)C(=O)N[C@H](C(=O)N[C@H](C(=O)N[C@@H](CC(C)C)C(=O)N[C@@H](CC(=O)O)C(=O)N[C@@H](Cc1ccc(O)cc1)C(=O)N[C@@H](CC(C)C)C(=O)N[C@@H](C)C(=O)N[C@@H](C)C(=O)N[C@@H](CCCNC(=N)N)C(=O)N[C@@H](CC(=O)O)C(=O)N[C@@H](Cc1ccccc1)C(=O)N[C@H](C(=O)N[C@@H](CC(N)=O)C(=O)N[C@@H](Cc1c[nH]c2ccccc12)C(=O)N[C@@H](CC(C)C)C(=O)N[C@H](C(=O)N[C@@H](CCC(N)=O)C(=O)N[C@H](C(=O)N[C@@H](CCCCN)C(=O)N[C@H](C(=O)N[C@H](C(=O)N[C@@H](CC(=O)O)C(N)=O)[C@@H](C)O)[C@@H](C)CC)[C@@H](C)O)[C@@H](C)CC)[C@@H](C)CC)[C@@H](C)CC)[C@@H](C)O [Variant 5] (H-HGEGSFSDE[Nle]NTILDYLAARDFINWLIQTKITD-NH2) | 10
3 | 12.1 | V6: clear | (~1.5%) | 3.8 | outperformed the rest of the peptides | CCCC[C@H](NC(=O)[C@H](CCC(=O)O)NC(=O)[C@H](CC(=O)O)NC(=O)[C@H](CO)NC(=O)[C@H](Cc1ccccc1)NC(=O)[C@H](CO)NC(=O)CNC(=O)[C@H](CCC(=O)O)NC(=O)CNC(=O)[C@@H](N)Cc1c[nH]cn1)C(=O)N[C@@H](CC(N)=O)C(=O)N[C@H](C(=O)N[C@H](C(=O)N[C@@H](CC(C)C)C(=O)N[C@@H](CC(=O)O)C(=O)N[C@@H](CC(C)C)C(=O)N[C@@H](CC(C)C)C(=O)N[C@@H](C)C(=O)N[C@@H](C)C(=O)N[C@@H](CCCNC(=N)N)C(=O)N[C@@H](CC(=O)O)C(=O)N[C@@H](Cc1ccccc1)C(=O)N[C@H](C(=O)N[C@@H](CC(N)=O)C(=O)N[C@@H](Cc1c[nH]c2ccccc12)C(=O)N[C@@H](CC(C)C)C(=O)N[C@H](C(=O)N[C@@H](CCC(N)=O)C(=O)N[C@H](C(=O)N[C@@H](CCCCN)C(=O)N[C@H](C(=O)N[C@H](C(=O)N[C@@H](CC(=O)O)C(=O)O)[C@@H](C)O)[C@@H](C)CC)[C@@H](C)O)[C@@H](C)CC)[C@@H](C)CC)[C@@H](C)CC)[C@@H](C)O [Variant 6] (H-HGEGSFSDE[Nle]NTILDLLAARDFINWLIQTKITD-OH) | 43

Reference: patent US20200254065A1, “LONG-ACTING GLP-2 ANALOGS” (OPKO Biologics Ltd., priority 2019, published 2020)
